{
  "source": "patent US7186735B2",
  "about": "“Acylated arylcycloalkylamines and their use as pharmaceuticals” (Sanofi-Aventis Deutschland GmbH, priority 2002, dated 2007)",
  "data": [
    {"molecular_target": "eNOS promoter", "assay": "Activation of eNOS transcription (eNOS promoter-luciferase reporter gene assay)", "assay_type": "cell-based", "conditions": "human endothelial cell line stably transfected with eNOS promoter-luciferase construct; 18 h incubation; EC50 determined graphically from TIR vs concentration; read-out: eNOS transcription induction ratios EC50", "protocol": "Determination of Activation of eNOS Transcription\nActivation of eNOS transcription was determined as described in detail in Li et al., “Activation of protein kinase C alpha and/or epsilon enhances transcription of the human endothelial nitric oxide synthase gene”, Mol. Pharmacol. 53 (1998) 630, the content of which is incorporated herein by reference.\nBriefly, a 3.5 kB long fragment 5′ of the starting codon of the eNOS gene was cloned, sequenced and cloned in firefly luciferase expression plasmids to monitor activation of the eNOS promoter by reporter gene activity. A human endothelial cell line stable transfected and expressing this promoter-reporter construct was used for compound testing. Cells were incubated for 18 h with compounds.\nAll compounds were dissolved in sterile dimethyl sulfoxide (DMSO). A final concentration of 0.5% DMSO in complete medium was allowed. Induction of reporter gene expression in these cells was measured using a standard luciferase assay system (Promega, Cat. No E150) according to the manufacturer's instructions. Luciferase induction in cells incubated with compounds were compared to those incubated with solvent alone. The ratio of both activities (transcription induction ratio, TIR) was plotted as a function of compound concentration. Typically, TIR values started at low concentrations at a ratio of 1, indicating no compound effect, and extended up to a maximum TIR value TIR(max) which indicates the increase of the eNOS transcription. EC50 values of transcription induction ratios as a function of compound concentration were determined graphically.", "units": {"EC50": "nM"}, "values": [
      {"smiles": "Cc1cc(C)c(C(=O)NC2CC2c2ccccc2)c(N)n1", "note": "(racemic) [Example 33]", "EC50": 12000},
      {"smiles": "O=C(N[C@@H]1C[C@H]1c1ccccc1)c1ccc(F)cc1", "note": "(relative stereo) [Example 40, 4-Fluoro-N-(trans-2-phenylcyclopropyl)benzamide]", "EC50": 1500},
      {"smiles": "COc1ccc(C(=O)N[C@@H]2C[C@H]2c2ccccc2)cn1", "note": "(racemic) [Example 11]", "EC50": 780},
      {"smiles": "Cc1ccc(C(=O)N[C@@H]2C[C@H]2c2ccccc2)c(Cl)n1", "note": "(racemic) [Example 26]", "EC50": 290},
      {"smiles": "Cc1ccc(C(=O)NC2CC2c2ccccc2)s1", "note": "(racemic) [Example 37]", "EC50": 260},
      {"smiles": "O=C(NC1CC1c1ccccc1)c1cccc2[nH]ccc12", "note": "(racemic) [Example 31]", "EC50": 470},
      {"smiles": "O=C(N[C@@H]1C[C@H]1c1ccccc1)c1ccc2cc[nH]c2c1", "note": "(racemic) [Example 29]", "EC50": 100},
      {"smiles": "O=C(N[C@@H]1C[C@H]1c1ccccc1)c1cccc(N2CCCC2)c1", "note": "(racemic) [Example 13]", "EC50": 1300},
      {"smiles": "O=C(N[C@@H]1C[C@H]1c1ccccc1)c1cccc(N2CCCCC2)c1", "note": "(racemic) [Example 14]", "EC50": 11000},
      {"smiles": "O=C(N[C@@H]1C[C@H]1c1ccccc1)c1cccc(N2CCOCC2)c1", "note": "(racemic) [Example 16]", "EC50": 32000},
      {"smiles": "Cc1ccc(C(=O)N[C@@H]2C[C@H]2c2ccccc2)cc1NS(C)(=O)=O", "note": "(racemic) [Example 7]", "EC50": 1800},
      {"smiles": "O=C(N[C@@H]1C[C@H]1c1ccccc1)c1cnn(-c2ccccc2)c1C(F)(F)F", "note": "(racemic) [Example 21]", "EC50": 240},
      {"smiles": "COCc1ccc(C(=O)N[C@@H]2C[C@H]2c2ccccc2)cn1", "note": "(racemic) [Example 27]", "EC50": 4300},
      {"smiles": "O=C(NC1CC1c1ccccc1)c1cccc(Cl)c1Cl", "note": "(racemic) [Example 34]", "EC50": 1200},
      {"smiles": "CN(C)c1cccc(C(=O)NC2CC2c2ccccc2)c1", "note": "(racemic) [Example 32]", "EC50": 1800},
      {"smiles": "O=C(N[C@@H]1C[C@H]1c1ccccc1)c1ccc(N2CCOCC2)nc1", "note": "(racemic) [Example 9]", "EC50": 3500},
      {"smiles": "Cc1cc(C(=O)N[C@@H]2C[C@H]2c2ccccc2)c(C)n1Cc1ccncc1", "note": "(racemic) [Example 22]", "EC50": 24000},
      {"smiles": "O=C(NC1CC1c1ccccc1)c1ccc(F)cc1F", "note": "(racemic) [Example 36]", "EC50": 310},
      {"smiles": "Nc1nccnc1C(=O)N[C@@H]1C[C@H]1c1ccccc1", "note": "(racemic) [Example 28]", "EC50": 430},
      {"smiles": "O=C(N[C@@H]1C[C@H]1c1ccccc1)c1ccc2[nH]ccc2c1", "note": "(racemic) [Example 30]", "EC50": 100},
      {"smiles": "Cc1nc(N)c(C(=O)N[C@@H]2C[C@H]2c2ccccc2)nc1C", "note": "(racemic) [Example 5]", "EC50": 160},
      {"smiles": "Cc1c(C(=O)N[C@@H]2C[C@H]2c2ccccc2)cnn1-c1ccccc1", "note": "(racemic) [Example 20]", "EC50": 110},
      {"smiles": "Cc1nc(C2CC2)sc1C(=O)N[C@@H]1C[C@H]1c1ccccc1", "note": "(racemic) [Example 3]", "EC50": 300},
      {"smiles": "CN1CCN(c2cccc(C(=O)N[C@@H]3C[C@H]3c3ccccc3)c2)CC1", "note": "(racemic) [Example 15]", "EC50": 59000},
      {"smiles": "CC(C)S(=O)(=O)c1csc(C(=O)N[C@@H]2C[C@H]2c2ccccc2)c1Cl", "note": "(racemic) [Example 19]", "EC50": 450},
      {"smiles": "CS(=O)(=O)Nc1cccc(C(=O)N[C@@H]2C[C@H]2c2ccccc2)c1", "note": "(racemic) [Example 8]", "EC50": 2000},
      {"smiles": "Cc1nc(C)c(C(=O)N[C@@H]2C[C@H]2c2ccccc2)o1", "note": "(racemic) [Example 1]", "EC50": 18000},
      {"smiles": "Cc1nc(C)c(C(=O)N[C@@H]2C[C@H]2c2ccccc2)s1", "note": "(racemic) [Example 23]", "EC50": 600},
      {"smiles": "O=C(NC1CC1c1ccccc1)c1ccc(Cl)s1", "note": "(racemic) [Example 38]", "EC50": 230},
      {"smiles": "O=C(N[C@@H]1C[C@H]1c1ccccc1)c1cnc2c(c1)CCCC2", "note": "(racemic) [Example 10]", "EC50": 5100},
      {"smiles": "Cc1ccc(C(=O)N[C@@H]2C[C@H]2c2ccccc2)cn1", "note": "(racemic) [Example 25]", "EC50": 1100},
      {"smiles": "Cc1nc2ccc(C(=O)N[C@@H]3C[C@H]3c3ccccc3)cc2[nH]1", "note": "(racemic) [Example 18]", "EC50": 330},
      {"smiles": "O=C(N[C@@H]1C[C@H]1c1ccccc1)c1ccc(F)cc1", "note": "(relative stereo) [Example 39, 4-fluoro-N-(trans-2-phenylcyclopropyl)benzamide]", "EC50": 190},
      {"smiles": "Cc1cc(C(=O)N[C@@H]2C[C@H]2c2ccccc2)c(C)n1Cc1cccs1", "note": "(racemic) [Example 17]", "EC50": "< 10"},
      {"smiles": "Nc1ncccc1C(=O)N[C@@H]1C[C@H]1c1ccccc1", "note": "(racemic) [Example 24]", "EC50": 950},
      {"smiles": "O=C(N[C@@H]1C[C@H]1c1ccccc1)c1ccc(F)cc1", "note": "(relative stereo) [Example 41, 4-Fluoro-N-(trans-2-phenylcyclopropyl)benzamide]", "EC50": 180},
      {"smiles": "Cc1ncc(C(=O)N[C@@H]2C[C@H]2c2ccccc2)s1", "note": "(racemic) [Example 12]", "EC50": 10000},
      {"smiles": "Cc1ccc(C(=O)N[C@@H]2C[C@H]2c2ccccc2)c(C)n1", "note": "(racemic) [Example 4]", "EC50": 330}
    ]}
  ]
}
